According to BindingDB's records for doi:10.1016/S1074-5521(99)80072-6 (Ligand Pharmaceuticals Inc, 1999):

Experiments:
Vitamin D3 receptor = biological target: T1, Vitamin D3 receptor (Homo sapiens, UniProt P11473); assay: VDR Ligand-Binding Assay; conditions: pH 7.5; 4 °C
T1 sequence (P11473 whole entry): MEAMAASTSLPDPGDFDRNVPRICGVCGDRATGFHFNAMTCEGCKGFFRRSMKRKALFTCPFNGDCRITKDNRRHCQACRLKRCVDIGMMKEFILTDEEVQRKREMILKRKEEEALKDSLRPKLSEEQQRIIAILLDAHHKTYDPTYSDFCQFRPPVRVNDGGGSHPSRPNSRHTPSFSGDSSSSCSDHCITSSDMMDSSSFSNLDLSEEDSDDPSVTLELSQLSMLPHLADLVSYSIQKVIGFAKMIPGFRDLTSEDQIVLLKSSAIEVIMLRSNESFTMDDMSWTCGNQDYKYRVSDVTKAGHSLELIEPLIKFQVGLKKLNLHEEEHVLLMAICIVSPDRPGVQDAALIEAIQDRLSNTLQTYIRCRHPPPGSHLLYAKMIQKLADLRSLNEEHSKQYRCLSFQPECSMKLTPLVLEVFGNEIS
Description: VDR in vitro ligand-binding assay using human VDR constructed into a yeast expression plasmid.

[1] = biological target: T2, Vitamin D-binding protein (Homo sapiens, UniProt V9HWI6); assay: DBP Binding Assay; conditions: pH 7.4; 4 °C
T2 sequence (V9HWI6 whole entry): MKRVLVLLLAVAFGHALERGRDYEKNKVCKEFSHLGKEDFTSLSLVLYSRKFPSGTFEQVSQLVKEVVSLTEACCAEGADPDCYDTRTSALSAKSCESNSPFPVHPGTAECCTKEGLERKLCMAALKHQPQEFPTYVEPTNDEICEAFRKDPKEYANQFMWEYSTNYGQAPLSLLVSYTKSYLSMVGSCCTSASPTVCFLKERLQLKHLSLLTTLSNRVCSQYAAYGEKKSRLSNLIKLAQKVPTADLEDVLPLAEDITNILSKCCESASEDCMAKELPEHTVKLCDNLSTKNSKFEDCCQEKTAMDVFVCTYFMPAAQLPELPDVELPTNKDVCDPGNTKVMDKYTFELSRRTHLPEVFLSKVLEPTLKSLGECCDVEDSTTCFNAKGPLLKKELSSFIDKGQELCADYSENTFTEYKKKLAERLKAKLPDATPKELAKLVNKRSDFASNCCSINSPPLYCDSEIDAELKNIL
Description: (§1) DBP competition binding assay were done using human serum (Scantibodies) or rat serum (Gibco-BRL).

[2] = biological target: T3, Vitamin D-binding protein (Rattus norvegicus, UniProt P04276); assay: DBP Binding Assay; conditions: pH 7.4; 4 °C
T3 sequence (P04276 whole entry): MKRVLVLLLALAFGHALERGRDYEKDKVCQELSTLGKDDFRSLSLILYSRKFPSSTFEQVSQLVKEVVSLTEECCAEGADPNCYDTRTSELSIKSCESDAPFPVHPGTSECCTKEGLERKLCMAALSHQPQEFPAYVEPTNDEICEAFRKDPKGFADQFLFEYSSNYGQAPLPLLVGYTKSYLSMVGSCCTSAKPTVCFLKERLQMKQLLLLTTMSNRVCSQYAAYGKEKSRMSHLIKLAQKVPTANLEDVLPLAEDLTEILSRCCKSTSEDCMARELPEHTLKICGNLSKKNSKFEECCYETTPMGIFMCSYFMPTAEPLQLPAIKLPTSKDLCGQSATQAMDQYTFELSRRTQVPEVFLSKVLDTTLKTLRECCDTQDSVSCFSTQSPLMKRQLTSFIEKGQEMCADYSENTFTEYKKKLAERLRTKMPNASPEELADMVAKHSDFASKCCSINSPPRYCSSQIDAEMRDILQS
Description: as §1

| SMILES | Ki (Vitamin D3 receptor) [nM] | IC50 [1] [nM] | IC50 [2] [nM] |
| --- | --- | --- | --- |
| Cc1cc(C2(c3ccc(OCC(=O)C(C)(C)C)c(C)c3)CCCCC2)ccc1OCC(=O)C(C)(C)C [LG190119] | > 1000 | > 1000 |  |
| CCC(CC)(c1ccc(OCC(=O)C(C)(C)C)c(C)c1)c1ccc(OCC2CO2)c(C)c1 (configuration not stated) [LG190176] | > 1000 | > 1000 |  |
| C=C1/C(=C\C=C\C2CCC3(C)C(CCC3C(C)CCCC(C)(C)O)C2)C[C@@H](C)C[C@@H]1C (some centres not stated) [1,25(OH)2D3] | 0.5 | 200 | 40 |
| CCC(CC)(c1ccc(OCC(=O)C(C)(C)C)c(C)c1)c1ccc(OCC(=O)C(C)(C)C)c(C)c1 [LG190155] | > 1000 | > 1000 |  |
| CC(C)(C)C(=O)COc1ccc(C(C)(C)c2ccc(OCC(=O)C(C)(C)C)c(Cl)c2)cc1Cl [LG190090] | > 1000 | > 1000 |  |
| CCC(CC)(c1ccc(OCC(=O)C(C)(C)C)c(C)c1)c1ccc(OCC(O)CO)c(C)c1 (configuration not stated) [LG190178] |  | > 1000 |  |
